Earlier results, collected in patent US6355457B1, “Genes for the biosynthesis of epothilones” (Novartis AG, priority 1998, dated 2002).

Test system: human solid tumors
Settings: in vivo

SMILES	activity against human solid tumors
CC(=O)O[C@@]12CO[C@@H]1C[C@H](O)[C@@]1(C)C(=O)[C@H](O)C3=C(C)[C@@H](OC(=O)[C@H](O)[C@@H](NC(=O)OC(C)(C)C)c4ccccc4)C[C@@](O)([C@@H](OC(=O)c4ccccc4)[C@H]21)C3(C)C [taxotere]	significant activity against various human solid tumors
CC(=O)O[C@H]1C(=O)[C@@]2(C)[C@H]([C@H](OC(=O)c3ccccc3)[C@]3(O)C[C@H](OC(=O)[C@H](O)[C@@H](NC(=O)c4ccccc4)c4ccccc4)C(C)=C1C3(C)C)[C@]1(OC(C)=O)CO[C@@H]1C[C@@H]2O [Taxol]	significant activity against various human solid tumors
